This is an account of results in patent US11339161B2, “Triazolo pyridines as modulators of gamma-secretase” (Boehringer Ingelheim International GmbH, priority 2017, dated 2022).

Structures are written as SMILES. Read-outs that look alike come from different tables or passages of the source.

Experiment [1] concerns the target ABL1 (Homo sapiens, UniProt P00519). Kind of experiment: Z'-LYTE SelectScreen biochemical kinase assay ABL1. An excerpt: (§1) Thermo Fisher Scientific SelectScreen™ Biochemical Kinase Profiling Service Z′-LYTE™ Screening Protocol and Assay Conditions Assay Theory
(§2) The […] biochemical assay employs a fluorescence-based, coupled-enzyme format and is based on the differential sensitivity of phosphorylated and non-phosphorylated peptides to proteolytic cleavage. The peptide substrate is labeled with two fluorophores—one at each end—that make up a FRET pair. In the primary reaction, the kinase transfers the gamma-phosphate of ATP to a single tyrosine, serine or threonine residue in a synthetic FRET-peptide. In the secondary reaction, a site-specific protease recognizes and cleaves non-phosphorylated FRET-peptides. Phosphorylation of FRET-peptides suppresses cleavage by the Development Reagent. Cleavage disrupts FRET between the donor (i.e., coumarin) and acceptor (i.e., fluorescein) fluorophores on the FRET-peptide, whereas uncleaved, phosphorylated FRET-peptides maintain FRET. A ratiometric method, which calculates the ratio (Emission Ratio=Coumarin emission (445 nm)/Fluorescein emission (520 nm)) of donor emission to acceptor emission after excitation of the donor fluorophore at 400 nm, is used to quantitate reaction progress, as shown in the equation below. A significant benefit of this ratiometric method for quantitating reaction progress is the elimination of well-to-well variations in FRET-peptide concentration and signal intensities. As a result, the assay yields very high Z′-factor values (>0.7) at a low percent phosphorylation. Both cleaved and uncleaved FRET-peptides contribute to the fluorescence signals and therefore to the Emission Ratio. The extent of phosphorylation of the FRET-peptide can be calculated from the Emission Ratio. The Emission Ratio will remain low if the FRET-peptide is phosphorylated (i.e., no kinase inhibition) and will be high if the FRET-peptide is non-phosphorylated (i.e., kinase inhibition).
(§3) The Test Compounds are screened in 1% DMSO (final) in the well. For 10 point titrations, 3-fold serial dilutions are conducted from the starting concentration of the customer's choosing.
(§4) All Peptide/Kinase Mixtures are diluted to a 2× working concentration in the appropriate Kinase Buffer (see section Kinase Specific Assay Conditions for a complete description).
(§5) All ATP Solutions are diluted to a 4× working concentration in Kinase Buffer (50 mM HEPES pH 7.5, 0.01% BRIJ-35, 10 mM MgCl2, 1 mM EGTA). ATP Km apparent is previously determined using a Z″-LYTE assay.
(§6) The Development Reagent is diluted in Development Buffer (see section Kinase-Specific Assay Conditions—Direct and Cascade for a complete description).
(§7) Bar-coded Corning, low volume NBS, black 384-well plate (Corning Cat. #4514) • 1. 100 nL—100× Test Compound in 100% DMSO • 2. 2.4 μL—Kinase buffer • 3. 5 μL—2× Peptide/Kinase Mixture • 4. 2.5 μL—4×ATP Solution • 5. 30—second plate shake • 6. 60—minute Kinase Reaction incubation at room temperature • 7. 5 μL—Development Reagent Solution • 8. 30—second plate shake • 9. 60—minute Development Reaction incubation at room temperature • 10. Read on fluorescence plate reader and analyze the data Z′-LYTE Assay Controls
(§8) SelectScreen Kinase Profiling Service uses XLfit from IDBS. The dose response curve is curve fit to model number 205 (sigmoidal dose-response model).
The 2×ABL1/Tyr 02 mixture is prepared in 50 mM HEPES pH 7.5, 0.01% BRIJ-35, 10 mM MgCl2, 1 mM EGTA. The final 10 μL Kinase Reaction consists of 0.29-1.26 ng ABL1 and 2 μM Tyr 02 in 50 mM HEPES pH 7.5, 0.01% BRIJ-35, 10 mM MgCl2, 1 mM EGTA. After the 1 hour Kinase Reaction incubation, 5 μL of a 1:128 dilution of Development Reagent A is added.

The target of experiment [2] is T1, AURKA (Aurora A) (Homo sapiens, UniProt O14965).
T1 sequence (O14965 1-403): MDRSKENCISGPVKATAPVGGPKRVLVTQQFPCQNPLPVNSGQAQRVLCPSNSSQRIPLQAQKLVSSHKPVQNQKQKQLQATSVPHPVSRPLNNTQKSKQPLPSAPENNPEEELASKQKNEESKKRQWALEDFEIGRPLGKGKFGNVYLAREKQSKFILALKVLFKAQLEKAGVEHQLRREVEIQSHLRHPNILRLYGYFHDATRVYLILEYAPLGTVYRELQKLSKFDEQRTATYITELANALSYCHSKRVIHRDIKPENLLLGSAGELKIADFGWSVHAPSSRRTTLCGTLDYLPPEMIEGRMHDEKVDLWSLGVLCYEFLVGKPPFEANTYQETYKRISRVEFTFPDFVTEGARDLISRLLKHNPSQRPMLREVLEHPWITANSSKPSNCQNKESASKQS
Kind of experiment: Z'-LYTE SelectScreen biochemical kinase assay AURKA (Aurora A).
Source text: as §1, §2, §3, §4, §5, §6, §7, §8
The 2×AURKA (Aurora A)/Ser/Thr 01 mixture is prepared in 50 mM HEPES pH 7.5, 0.01% BRIJ-35, 10 mM MgCl2, 1 mM EGTA. The final 10 μL Kinase Reaction consists of 0.91-8.56 ng AURKA (Aurora A) and 2 μM Ser/Thr 01 in 50 mM HEPES pH 7.5, 0.01% BRIJ-35, 10 mM MgCl2, 1 mM EGTA. After the 1 hour Kinase Reaction incubation, 5 μL of a 1:4096 dilution of Development Reagent A is added.

The target of experiment [3] is FGFR2 (Homo sapiens, UniProt P21802). Kind of experiment: Z'-LYTE SelectScreen biochemical kinase assay FGFR2.
Source text: as §1, §2, §3, §4, §5, §6, §7, §8
The 2×FGFR2/Tyr 04 mixture is prepared in 50 mM HEPES pH 7.5, 0.01% BRIJ-35, 10 mM MgCl2, 4 mM MnCl2, 1 mM EGTA, 2 mM DTT. The final 10 μL Kinase Reaction consists of 0.19-1.99 ng FGFR2 and 2 μM Tyr 04 in 50 mM HEPES pH 7.5, 0.01% BRIJ-35, 10 mM MgCl2, 2 mM MnCl2, 1 mM EGTA, 1 mM DTT. After the 1 hour Kinase Reaction incubation, 5 μL of a 1:64 dilution of Development Reagent B is added.

Experiment [4] relates to kinases. The experiment can be described thus: Z'-LYTE SelectScreen kinase panel: number of kinases with <40% inhibition out of 15 tested. The format is biochemical. Particulars: 10 μmolar (10000 nM) compound; [ATP] Km app; 15 kinases tested.
[5] abbreviates: 10 μmolar compound concentration, ATP at Km app, read-out: ABL1 inhibition.
[6] abbreviates: read-out: % Inhibition mean ABL1.
[7] abbreviates: 10 μmolar compound concentration, ATP at Km app, read-out: AURKA (Aurora A) inhibition.
Where [8] appears, read: read-out: % Inhibition mean AURKA (Aurora A).
Where [9] appears, read: 10 μmolar compound concentration, ATP at Km app, read-out: FGFR2 inhibition.
[10] abbreviates: read-out: % Inhibition mean FGFR2.

Chain of ABL1 (P00519 whole entry): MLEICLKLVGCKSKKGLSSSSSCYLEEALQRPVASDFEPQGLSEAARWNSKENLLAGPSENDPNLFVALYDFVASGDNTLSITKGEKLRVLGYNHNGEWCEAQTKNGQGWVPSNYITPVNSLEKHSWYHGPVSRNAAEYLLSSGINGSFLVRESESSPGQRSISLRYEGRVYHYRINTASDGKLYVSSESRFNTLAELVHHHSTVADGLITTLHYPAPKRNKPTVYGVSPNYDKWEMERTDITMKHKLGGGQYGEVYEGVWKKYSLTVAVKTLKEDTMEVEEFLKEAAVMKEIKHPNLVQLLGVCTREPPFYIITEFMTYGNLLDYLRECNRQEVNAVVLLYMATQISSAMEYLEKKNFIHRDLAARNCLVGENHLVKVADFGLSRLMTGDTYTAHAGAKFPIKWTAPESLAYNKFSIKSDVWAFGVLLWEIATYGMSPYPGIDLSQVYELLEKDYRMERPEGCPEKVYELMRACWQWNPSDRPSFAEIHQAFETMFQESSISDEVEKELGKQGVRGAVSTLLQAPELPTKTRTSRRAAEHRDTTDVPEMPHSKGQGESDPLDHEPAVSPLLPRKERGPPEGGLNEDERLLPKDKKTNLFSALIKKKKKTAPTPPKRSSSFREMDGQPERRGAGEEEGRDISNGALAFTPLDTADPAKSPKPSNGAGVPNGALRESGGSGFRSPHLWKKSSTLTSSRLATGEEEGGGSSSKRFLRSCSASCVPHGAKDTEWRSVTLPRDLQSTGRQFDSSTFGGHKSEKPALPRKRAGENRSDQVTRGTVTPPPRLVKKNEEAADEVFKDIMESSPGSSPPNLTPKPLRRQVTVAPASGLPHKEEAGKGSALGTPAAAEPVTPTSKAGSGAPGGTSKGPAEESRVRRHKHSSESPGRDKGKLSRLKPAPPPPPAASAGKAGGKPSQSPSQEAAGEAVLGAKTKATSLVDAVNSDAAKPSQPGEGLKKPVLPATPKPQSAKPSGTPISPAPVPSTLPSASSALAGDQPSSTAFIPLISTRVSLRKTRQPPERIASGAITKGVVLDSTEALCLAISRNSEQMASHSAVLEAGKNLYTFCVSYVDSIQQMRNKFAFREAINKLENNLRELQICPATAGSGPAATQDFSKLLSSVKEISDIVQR
Chain of FGFR2 (P21802 22-821): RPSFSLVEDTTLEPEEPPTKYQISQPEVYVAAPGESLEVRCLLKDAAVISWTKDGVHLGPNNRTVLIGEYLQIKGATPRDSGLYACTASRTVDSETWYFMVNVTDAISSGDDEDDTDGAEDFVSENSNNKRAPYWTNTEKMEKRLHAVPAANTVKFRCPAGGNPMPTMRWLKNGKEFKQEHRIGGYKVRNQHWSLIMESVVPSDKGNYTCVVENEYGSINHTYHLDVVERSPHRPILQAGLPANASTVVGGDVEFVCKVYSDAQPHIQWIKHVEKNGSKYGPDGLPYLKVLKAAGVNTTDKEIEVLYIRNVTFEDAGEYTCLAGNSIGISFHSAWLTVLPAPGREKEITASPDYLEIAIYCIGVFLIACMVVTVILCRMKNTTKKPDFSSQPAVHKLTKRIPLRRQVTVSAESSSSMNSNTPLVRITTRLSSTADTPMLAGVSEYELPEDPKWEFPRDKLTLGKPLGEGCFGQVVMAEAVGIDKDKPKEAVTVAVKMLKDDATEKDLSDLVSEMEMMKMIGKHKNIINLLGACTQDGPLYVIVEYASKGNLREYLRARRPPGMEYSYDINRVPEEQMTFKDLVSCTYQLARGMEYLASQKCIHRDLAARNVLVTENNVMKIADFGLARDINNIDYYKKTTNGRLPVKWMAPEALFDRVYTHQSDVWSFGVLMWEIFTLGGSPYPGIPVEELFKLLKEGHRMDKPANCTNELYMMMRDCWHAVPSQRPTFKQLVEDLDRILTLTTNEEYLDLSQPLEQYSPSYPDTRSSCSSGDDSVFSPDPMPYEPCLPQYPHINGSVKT

In general, inhibition refers to the change of the read-out against control, counted positive when it falls. `CCCn1ncc2c1CCC(Nc1nc3c(-c4ccc(F)cc4C)cccn3n1)C2` (stereo not drawn) [Example 43, [8-(4-fluoro-2-methyl-phenyl)-[1,2,4]triazolo[1,5-a]pyridine-2-yl]-(1-propyl-4,5,6,7-tetrahydro-1H-indazol-5-yl)-amine]: the inhibition at 10 µM in experiment [1] (setting [5]) was less than 40%; in experiment [1] (setting [6]) it was 17%; in experiment [2] (setting [7]) it was less than 40%; in experiment [2] (setting [8]) it was -17%; in experiment [3] (setting [9]), less than 40%; in experiment [3] (setting [10]), 14%. The “No. of kinases with <40% inhibition” value in experiment [4] is 14/15.

Regarding `CCn1nc(Cl)c2c1CCC(Nc1nc3c(-c4ccc(F)cc4C)cccn3n1)C2` (stereo not drawn) [Example 48, (3-Chloro-1-ethyl-4,5,6,7-tetrahydro-1H-indazol-5-yl)-[8-(4-fluoro-2-methyl-phenyl)-[1,2,4]triazolo[1,5-a]pyridine-2-yl]-amine], the inhibition at 10 µM in experiment [1] (setting [5]) is less than 40%; in experiment [1] (setting [6]) it was 13%; in experiment [2] (setting [7]), less than 40%; in experiment [2] (setting [8]), -14%; in experiment [3] (setting [9]), less than 40%; in experiment [3] (setting [10]) it was 22%. Also, the “No. of kinases with <40% inhibition” value in experiment [4] is 14/15.

Consider `CCCCn1ncc2c1CCC(Nc1nc3c(-c4ccc(F)cc4C)cccn3n1)C2` (stereo not drawn) [Example 46, [8-(4-fluoro-2-methyl-phenyl)-[1,2,4]triazolo[1,5-a]pyridine-2-yl]-(1-butyl-4,5,6,7-tetrahydro-1H-indazol-5-yl)-amine], for which the inhibition at 10 µM was less than 40% in experiment [1] (setting [5]); 10% in experiment [1] (setting [6]); less than 40% in experiment [2] (setting [7]); 14% in experiment [2] (setting [8]); less than 40% in experiment [3] (setting [9]); 26% in experiment [3] (setting [10]). Moreover, in experiment [4], the “No. of kinases with <40% inhibition” value is listed as 14/15.

As to `CCn1ncc2c1C(C)CC(Nc1nc3c(-c4cc(F)c(F)c(F)c4)cccn3n1)C2` (stereo not drawn) [Example 49, (1-Ethyl-7-methyl-4,5,6,7-tetrahydro-1H-indazol-5-yl)-[8-(3,4,5-trifluoro-phenyl)-[1,2,4]triazolo[1,5-a]pyridine-2-yl]-amine], the inhibition at 10 µM in experiment [1] (setting [5]) was less than 40%; in experiment [1] (setting [6]) it was 15%; in experiment [2] (setting [7]), less than 40%; in experiment [2] (setting [8]) it was -14%; in experiment [3] (setting [9]), less than 40%; in experiment [3] (setting [10]), 31%. Also, the “No. of kinases with <40% inhibition” value in experiment [4] is on record as 14/15.

On to `Cc1cc(F)ccc1-c1cccn2nc(NC3CCc4c(cnn4C(C)C)C3)nc12` (stereo not drawn) [Example 44, [8-(4-fluoro-2-methyl-phenyl)-[1,2,4]triazolo[1,5-a]pyridine-2-yl]-(1-isopropyl-4,5,6,7-tetrahydro-1H-indazol-5-yl)-amine], for which the inhibition at 10 µM in experiment [1] (setting [5]) was less than 40%; in experiment [1] (setting [6]), 13%; in experiment [2] (setting [7]), less than 40%; in experiment [2] (setting [8]) it was 7%; in experiment [3] (setting [9]) it was less than 40%; in experiment [3] (setting [10]) it was 22%. In addition, the “No. of kinases with <40% inhibition” value in experiment [4] is 13/15.

Regarding `CCn1ncc2c1CCC(Nc1nc3c(-c4ccc(F)cc4C)cccn3n1)C2` (stereo not drawn) [Example 42, (1-Ethyl-4,5,6,7-tetrahydro-1H-indazol-5-yl)-[8-(4-fluoro-2-methyl-phenyl)-[1,2,4]triazolo[1,5-a]pyridine-2-yl]-amine], the inhibition at 10 µM in experiment [1] (setting [5]) was less than 40%; in experiment [1] (setting [6]), 19%; in experiment [2] (setting [7]), less than 40%; in experiment [2] (setting [8]) it was -2%; in experiment [3] (setting [9]), less than 40%; in experiment [3] (setting [10]), 26%. Further, the “No. of kinases with <40% inhibition” value in experiment [4] is given as 15/15.

As to `CCc1nn(C)c2c1CCC(Nc1nc3c(-c4ccc(F)cc4C)cccn3n1)C2` (stereo not drawn) [Example 54, (3-Ethyl-1-methyl-4,5,6,7-tetrahydro-1H-indazol-6-yl)-[8-(4-fluoro-2-methyl-phenyl)-[1,2,4]triazolo[1,5-a]pyridine-2-yl]-amine], the inhibition at 10 µM in experiment [1] (setting [5]) is less than 40%; in experiment [1] (setting [6]), 12%; in experiment [2] (setting [7]) it was less than 40%; in experiment [2] (setting [8]) it was 18%; in experiment [3] (setting [9]), less than 40%; in experiment [3] (setting [10]), 25%. In addition, in experiment [4], the “No. of kinases with <40% inhibition” value is recorded as 15/15.

Consider `CCn1ncc2c1CCC(Nc1nc3c(-c4ccc(F)cc4)cccn3n1)C2` (stereo not drawn) [Example 55, (1-Ethyl-4,5,6,7-tetrahydro-1H-indazol-5-yl)-[8-(4-fluoro-phenyl)-[1,2,4]triazolo[1,5-a]pyridine-2-yl]-amine], for which the inhibition at 10 µM in experiment [1] (setting [5]) was less than 40%; in experiment [1] (setting [6]) it was 21%; in experiment [2] (setting [7]), less than 40%; in experiment [2] (setting [8]), 15%; in experiment [3] (setting [9]), less than 40%; in experiment [3] (setting [10]), 13%. Also, the “No. of kinases with <40% inhibition” value in experiment [4] is recorded as 13/15.

As to `Cc1cc(F)ccc1-c1cccn2nc(NC3CCc4cnn(C)c4C3)nc12` (stereo not drawn) [Example 40, [8-(4-Fluoro-2-methyl-phenyl)-[1,2,4]triazolo[1,5-a]pyridine-2-yl]-(1-methyl-4,5,6,7-tetrahydro-1H-indazol-6-yl)-amine], the inhibition at 10 µM was less than 40% in experiment [1] (setting [5]); 9% in experiment [1] (setting [6]); less than 40% in experiment [2] (setting [7]); 13% in experiment [2] (setting [8]); less than 40% in experiment [3] (setting [9]); 17% in experiment [3] (setting [10]). The “No. of kinases with <40% inhibition” value in experiment [4] was 13/15.
